Assay results published in article PMC12540828, “Fexofenadine protects against osteoarthritis by targeting Smad2 and STAT1 to enhance anabolism and binding cPLA2 to inhibit catabolism” (Cell Death Discovery, 2025).

Tests used:
[1] = target: T1, cPLA2 (Homo sapiens, UniProt P47712); assay: DARTS, Western blot; assay type: biochemical; details: chondrocyte lysate; protease digestion
T1 construct: gene PLA2G4A; endogenous, chondrocyte lysate, read by Western blot
T1 sequence (P47712 1-749): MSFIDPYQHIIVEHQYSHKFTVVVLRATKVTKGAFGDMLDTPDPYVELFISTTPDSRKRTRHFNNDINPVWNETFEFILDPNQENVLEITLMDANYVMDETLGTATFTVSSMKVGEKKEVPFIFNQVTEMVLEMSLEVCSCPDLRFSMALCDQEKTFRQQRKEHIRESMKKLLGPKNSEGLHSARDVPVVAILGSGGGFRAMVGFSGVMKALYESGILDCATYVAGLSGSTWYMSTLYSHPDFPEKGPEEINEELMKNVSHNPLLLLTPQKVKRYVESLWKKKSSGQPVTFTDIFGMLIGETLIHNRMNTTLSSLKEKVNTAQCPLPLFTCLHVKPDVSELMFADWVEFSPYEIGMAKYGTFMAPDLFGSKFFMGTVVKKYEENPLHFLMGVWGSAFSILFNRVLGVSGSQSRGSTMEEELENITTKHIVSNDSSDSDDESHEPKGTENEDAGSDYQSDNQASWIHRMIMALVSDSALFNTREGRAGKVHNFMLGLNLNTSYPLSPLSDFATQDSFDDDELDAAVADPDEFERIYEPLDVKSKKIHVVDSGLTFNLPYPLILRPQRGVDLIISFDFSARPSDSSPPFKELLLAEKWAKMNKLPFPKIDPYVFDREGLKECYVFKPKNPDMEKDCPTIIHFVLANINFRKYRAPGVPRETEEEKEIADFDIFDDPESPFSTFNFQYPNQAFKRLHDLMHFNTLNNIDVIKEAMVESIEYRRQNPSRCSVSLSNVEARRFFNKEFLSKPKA

[2] = target: T2, STAT1 (purified recombinant, His-tagged) (Homo sapiens, UniProt P42224); assay: microscale thermophoresis; assay type: binding
T2 construct: purified recombinant, His-tagged, RED-NHS labelled
T2 sequence (P42224 2-750): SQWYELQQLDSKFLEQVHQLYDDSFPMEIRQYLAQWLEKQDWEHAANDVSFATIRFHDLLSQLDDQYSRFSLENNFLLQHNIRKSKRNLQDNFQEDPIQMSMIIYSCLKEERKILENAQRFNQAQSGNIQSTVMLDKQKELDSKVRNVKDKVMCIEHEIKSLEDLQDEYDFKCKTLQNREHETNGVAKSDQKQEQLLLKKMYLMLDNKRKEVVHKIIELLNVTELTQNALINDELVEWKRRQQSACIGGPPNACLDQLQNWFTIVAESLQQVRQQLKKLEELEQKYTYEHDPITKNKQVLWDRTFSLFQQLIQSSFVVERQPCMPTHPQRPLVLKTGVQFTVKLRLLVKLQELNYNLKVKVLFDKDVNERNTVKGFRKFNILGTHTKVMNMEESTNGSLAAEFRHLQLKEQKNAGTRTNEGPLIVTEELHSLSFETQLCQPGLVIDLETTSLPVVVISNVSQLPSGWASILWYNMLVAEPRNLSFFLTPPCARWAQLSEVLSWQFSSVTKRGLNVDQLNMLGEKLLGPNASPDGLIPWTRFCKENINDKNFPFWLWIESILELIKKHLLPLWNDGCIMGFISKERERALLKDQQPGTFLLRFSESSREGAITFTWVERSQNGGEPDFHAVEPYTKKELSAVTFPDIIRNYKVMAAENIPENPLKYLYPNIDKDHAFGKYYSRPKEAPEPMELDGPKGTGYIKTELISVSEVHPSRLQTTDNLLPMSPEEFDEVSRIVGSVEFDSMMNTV

[3] = target: T3, STAT1 (endogenous, human chondrocytes) (Homo sapiens, UniProt P42224); assay: CETSA, Western blot; assay type: biochemical; details: FFD 10 μM
T3 construct: endogenous, read by Western blot
T3 sequence (P42224 2-750): T2 sequence (P42224 2-750)

[4] = target: T4, Smad2 (endogenous, human chondrocytes) (Homo sapiens, UniProt Q15796); assay: CETSA and DARTS, Western blot; assay type: biochemical; details: CETSA with FFD 10 μM
T4 construct: endogenous, read by Western blot
T4 sequence (Q15796 2-467): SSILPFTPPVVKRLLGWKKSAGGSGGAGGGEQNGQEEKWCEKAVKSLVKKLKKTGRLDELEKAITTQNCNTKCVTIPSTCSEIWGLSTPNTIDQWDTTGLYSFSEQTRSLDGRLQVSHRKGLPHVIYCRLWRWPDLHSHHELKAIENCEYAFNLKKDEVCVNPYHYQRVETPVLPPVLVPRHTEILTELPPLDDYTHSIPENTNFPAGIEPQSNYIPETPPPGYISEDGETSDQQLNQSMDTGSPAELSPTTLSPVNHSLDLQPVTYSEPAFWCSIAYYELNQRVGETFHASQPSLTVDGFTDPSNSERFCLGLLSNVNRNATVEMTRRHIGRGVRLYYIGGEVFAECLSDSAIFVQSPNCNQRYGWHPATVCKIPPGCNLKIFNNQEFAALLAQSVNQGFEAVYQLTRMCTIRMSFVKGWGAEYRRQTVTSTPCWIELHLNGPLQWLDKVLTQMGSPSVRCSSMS

Kd [2]: 3 µM
Tm with FFD (control 50.49) [3]: 60.01 °C
SMILES: CC(C)(C(=O)O)c1ccc(C(O)CCCN2CCC(C(O)(c3ccccc3)c3ccccc3)CC2)cc1 (stereo not shown) [Fexofenadine]
DARTS, Western blot [1]: cPLA2 remained undigested by the protease following incubation with FFD
CETSA and DARTS, Western blot [4]: DARTS and CETSA experiments subsequently confirmed the interaction between FFD and Smad2
